This test has as its system Proteasome. Nature of the test: Concentration required for reversal inhibition of 20S-proteasome. It is filed as subcellular.
Regarding `CC[C@H](NC(=O)[C@H](C)N1CC[C@](NC(=O)OCc2ccccc2)(C(C)C)C1=O)B(O)O`, the IC50 (usually the midpoint of a concentration-inhibition curve) stood at 1000 nM. As for `CC[C@H](NC(=O)[C@H](CC1CCCCC1)N1CC[C@](NS(=O)(=O)c2cccc(C)c2)(C(C)C)C1=O)B(O)O`, the figure is 30 nM; as for `Cc1cccc(S(=O)(=O)N[C@]2(C(C)C)CCN([C@@H](CC3CCCCC3)C(=O)N[C@@H](CC(C)C)B(O)O)C2=O)c1`, 8 nM; as for `Cc1cccc(S(=O)(=O)N[C@]2(C(C)C)CCN([C@@H](CC3CCCCC3)C(=O)N[C@H](B(O)O)C(C)C)C2=O)c1`, 28 nM. For the molecule `CC[C@H](NC(=O)[C@H](CC1CCCCC1)N1CC[C@](NC(=O)OCc2ccccc2)(C(C)C)C1=O)B(O)O`, the IC50 came to 30 nM. On to `CC[C@H](NC(=O)[C@H](Cc1ccccc1)N1CC[C@](NC(=O)OCc2ccccc2)(C(C)C)C1=O)B(O)O`, for which the IC50 was determined as 30 nM.

Values taken from ChEMBL document CHEMBL1137836, “Identification of a potent and rapidly reversible inhibitor of the 20S-proteasome” (Bioorg Med Chem Lett, 2004).
